Each structure is given as a SMILES string. pIC50, pKi: −log10 of the molar value.

Data set [1] has as its target Tyrosine-protein kinase BTK (Homo sapiens, UniProt Q06187). Description: Inhibition of BTK (unknown origin).
Data set [2] is described as follows: Intrinsic clearance in human liver microsomes assessed per mg protein. The data set is classed as ADME, microsome. As to conditions: read-out: CLH.
Data set [3] is described as follows: Permeability from apical to basolateral side in human Caco2 cells. The data set is classed as ADME, cell-based. As to conditions: Caco-2, read-out: permeability. In general terms: Passage across Caco-2 layers is used to estimate intestinal permeability.
Data set [4] can be described thus: Intrinsic clearance in rat liver microsomes assessed per mg protein. The data set is classed as ADME, microsome. As to conditions: read-out: CLH.
Data set [5] can be described thus: Intrinsic clearance in mouse liver microsomes assessed per mg protein. The data set is classed as ADME, microsome. As to conditions: read-out: CLH. In general terms: Liver microsomes are a subcellular fraction often used to study metabolism.
A short description of data set [6]: Half life in rat at 0.5 mg/kg, po. The data set is classed as ADME, organism-based. To be noted: in vivo.
Data set [7] concerns the target Cytochrome P450 3A4 (Homo sapiens, UniProt P08684). Description: Inhibition of CYP3A4 (unknown origin). The data set is classed as ADME.
Data set [8] deals with Cytochrome P450 2C19 (Homo sapiens, UniProt P33261). Put plainly: Inhibition of CYP2C19 (unknown origin). The data set is classed as ADME.
The target of data set [9] is T1, Cytochrome P450 2B6 (Homo sapiens, UniProt P20813).
T1 sequence (P20813 whole entry): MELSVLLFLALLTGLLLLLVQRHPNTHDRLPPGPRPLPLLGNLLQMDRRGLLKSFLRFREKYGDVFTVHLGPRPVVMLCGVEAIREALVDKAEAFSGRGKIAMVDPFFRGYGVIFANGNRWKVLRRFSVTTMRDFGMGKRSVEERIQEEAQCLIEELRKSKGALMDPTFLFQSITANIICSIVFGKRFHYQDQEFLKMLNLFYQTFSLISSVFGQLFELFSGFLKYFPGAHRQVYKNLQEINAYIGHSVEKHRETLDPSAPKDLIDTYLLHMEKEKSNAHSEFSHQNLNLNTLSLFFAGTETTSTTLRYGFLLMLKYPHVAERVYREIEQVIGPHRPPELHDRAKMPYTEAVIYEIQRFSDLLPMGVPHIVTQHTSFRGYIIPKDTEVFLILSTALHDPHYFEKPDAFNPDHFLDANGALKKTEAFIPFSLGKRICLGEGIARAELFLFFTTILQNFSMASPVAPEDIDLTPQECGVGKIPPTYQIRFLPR
Description: Inhibition of CYP2B6 (unknown origin). The data set is classed as ADME.

Data set [10] is described as follows: Fraction unbound in mouse plasma. The data set is classed as ADME, cell-free.
Data set [11] in a line: Fraction unbound in rat plasma. The data set is classed as ADME, cell-free.
For data set [12], the target named is Cytochrome P450 2C9 (Homo sapiens, UniProt P11712). Description: Inhibition of CYP2C9 (unknown origin). The data set is classed as ADME.
Data set [13] deals with EGFR (Homo sapiens, UniProt P00533). Description: Inhibition of EGFR (unknown origin) at 1 uM relative to control.
Data set [14] is described as follows: Fraction unbound in human plasma. The data set is classed as ADME, cell-free.
Data set [15] can be described thus: Oral bioavailability in rat at 0.5 mg/kg. The data set is classed as ADME, organism-based. To be noted: in vivo.
Data set [16] can be described thus: Clearance in rat at 0.5 mg/kg, po. To be noted: in vivo.
For data set [17], the target named is T2, Cytoplasmic tyrosine-protein kinase BMX (Homo sapiens) (UniProt P51813).
T2 sequence (whole entry): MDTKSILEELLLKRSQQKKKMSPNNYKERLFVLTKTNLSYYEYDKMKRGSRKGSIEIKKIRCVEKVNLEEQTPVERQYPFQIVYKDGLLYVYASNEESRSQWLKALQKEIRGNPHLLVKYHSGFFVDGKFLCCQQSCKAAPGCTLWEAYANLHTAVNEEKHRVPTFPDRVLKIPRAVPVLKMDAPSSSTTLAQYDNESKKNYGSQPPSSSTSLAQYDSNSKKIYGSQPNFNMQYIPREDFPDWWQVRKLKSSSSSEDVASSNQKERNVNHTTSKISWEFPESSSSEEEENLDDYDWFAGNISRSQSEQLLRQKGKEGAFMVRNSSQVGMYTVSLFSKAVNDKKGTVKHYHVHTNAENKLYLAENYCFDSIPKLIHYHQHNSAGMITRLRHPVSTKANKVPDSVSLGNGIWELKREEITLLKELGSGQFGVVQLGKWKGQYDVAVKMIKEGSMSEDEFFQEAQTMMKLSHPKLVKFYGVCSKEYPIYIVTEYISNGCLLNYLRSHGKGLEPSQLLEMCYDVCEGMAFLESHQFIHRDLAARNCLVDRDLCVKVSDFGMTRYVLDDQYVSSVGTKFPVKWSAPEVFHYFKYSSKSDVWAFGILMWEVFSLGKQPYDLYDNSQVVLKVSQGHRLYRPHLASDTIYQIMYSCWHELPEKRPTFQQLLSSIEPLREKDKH
Put plainly: Inhibition of BMX (unknown origin) at 1 uM relative to control.

Data set [18] deals with T3, Cytochrome P450 2C8 (Homo sapiens, UniProt P10632).
T3 sequence (P10632 whole entry): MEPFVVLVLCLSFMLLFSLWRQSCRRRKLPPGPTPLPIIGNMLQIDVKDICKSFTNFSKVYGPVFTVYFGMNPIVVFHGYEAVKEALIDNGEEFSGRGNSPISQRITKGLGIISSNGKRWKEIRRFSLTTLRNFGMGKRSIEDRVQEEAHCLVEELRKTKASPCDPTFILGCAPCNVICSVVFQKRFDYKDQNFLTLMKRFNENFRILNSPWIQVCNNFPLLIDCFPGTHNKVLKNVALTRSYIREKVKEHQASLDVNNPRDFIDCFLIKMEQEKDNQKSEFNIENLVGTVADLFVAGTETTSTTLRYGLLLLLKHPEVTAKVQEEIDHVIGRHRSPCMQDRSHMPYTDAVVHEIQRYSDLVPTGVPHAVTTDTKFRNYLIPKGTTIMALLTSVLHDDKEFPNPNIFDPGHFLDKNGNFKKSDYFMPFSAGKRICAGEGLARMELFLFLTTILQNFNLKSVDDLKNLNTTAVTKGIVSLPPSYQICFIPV
Description: Inhibition of CYP2C8 (unknown origin). The data set is classed as ADME.

Data set [19] relates to Rattus norvegicus. Description: Volume of distribution at steady state in rat at 0.5 mg/kg, po. The data set is classed as ADME, organism-based. To be noted: in vivo.
Data set [20] has as its target Voltage-gated inwardly rectifying potassium channel KCNH2 (Homo sapiens, UniProt Q12809). Put plainly: Binding affinity to human ERG.
Data set [21] has as its target T4, Tyrosine-protein kinase TXK (Homo sapiens) (UniProt P42681).
T4 sequence (whole entry): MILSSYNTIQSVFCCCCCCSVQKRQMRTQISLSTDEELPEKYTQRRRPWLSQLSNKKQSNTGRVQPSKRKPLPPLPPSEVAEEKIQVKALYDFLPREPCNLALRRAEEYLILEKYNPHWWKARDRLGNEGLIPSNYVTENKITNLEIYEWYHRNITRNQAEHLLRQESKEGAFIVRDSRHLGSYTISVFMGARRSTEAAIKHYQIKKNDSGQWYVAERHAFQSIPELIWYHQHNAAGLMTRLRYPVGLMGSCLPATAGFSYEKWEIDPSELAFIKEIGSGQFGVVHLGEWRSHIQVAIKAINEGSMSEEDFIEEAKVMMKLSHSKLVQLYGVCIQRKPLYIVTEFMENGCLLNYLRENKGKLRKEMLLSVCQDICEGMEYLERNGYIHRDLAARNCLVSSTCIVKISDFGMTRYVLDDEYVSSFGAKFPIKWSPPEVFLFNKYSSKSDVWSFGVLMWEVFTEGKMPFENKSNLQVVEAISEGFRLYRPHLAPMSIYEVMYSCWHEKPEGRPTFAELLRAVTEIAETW
Description: Inhibition of TXK (unknown origin) at 1 uM relative to control.

For data set [22], the target named is Tyrosine-protein kinase Blk (Homo sapiens) (UniProt P51451). Put plainly: Inhibition of Blk (unknown origin) at 1 uM relative to control.
Sequence of Tyrosine-protein kinase Blk (Homo sapiens) (P51451 2-505 limits assumed): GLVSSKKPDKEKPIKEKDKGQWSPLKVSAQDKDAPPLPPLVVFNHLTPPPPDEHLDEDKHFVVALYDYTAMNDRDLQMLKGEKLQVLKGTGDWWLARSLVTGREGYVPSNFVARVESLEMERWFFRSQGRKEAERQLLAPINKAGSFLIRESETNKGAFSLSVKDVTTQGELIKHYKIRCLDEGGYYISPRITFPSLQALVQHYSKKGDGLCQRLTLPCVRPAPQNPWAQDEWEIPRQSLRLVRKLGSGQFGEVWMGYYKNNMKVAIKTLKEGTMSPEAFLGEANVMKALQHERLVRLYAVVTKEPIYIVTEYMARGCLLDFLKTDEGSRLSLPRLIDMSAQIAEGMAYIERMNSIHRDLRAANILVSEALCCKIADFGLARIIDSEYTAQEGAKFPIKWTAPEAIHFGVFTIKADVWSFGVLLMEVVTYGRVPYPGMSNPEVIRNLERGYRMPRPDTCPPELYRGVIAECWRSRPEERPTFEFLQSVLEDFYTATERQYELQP

Sequence of Tyrosine-protein kinase BTK (Q06187 whole entry): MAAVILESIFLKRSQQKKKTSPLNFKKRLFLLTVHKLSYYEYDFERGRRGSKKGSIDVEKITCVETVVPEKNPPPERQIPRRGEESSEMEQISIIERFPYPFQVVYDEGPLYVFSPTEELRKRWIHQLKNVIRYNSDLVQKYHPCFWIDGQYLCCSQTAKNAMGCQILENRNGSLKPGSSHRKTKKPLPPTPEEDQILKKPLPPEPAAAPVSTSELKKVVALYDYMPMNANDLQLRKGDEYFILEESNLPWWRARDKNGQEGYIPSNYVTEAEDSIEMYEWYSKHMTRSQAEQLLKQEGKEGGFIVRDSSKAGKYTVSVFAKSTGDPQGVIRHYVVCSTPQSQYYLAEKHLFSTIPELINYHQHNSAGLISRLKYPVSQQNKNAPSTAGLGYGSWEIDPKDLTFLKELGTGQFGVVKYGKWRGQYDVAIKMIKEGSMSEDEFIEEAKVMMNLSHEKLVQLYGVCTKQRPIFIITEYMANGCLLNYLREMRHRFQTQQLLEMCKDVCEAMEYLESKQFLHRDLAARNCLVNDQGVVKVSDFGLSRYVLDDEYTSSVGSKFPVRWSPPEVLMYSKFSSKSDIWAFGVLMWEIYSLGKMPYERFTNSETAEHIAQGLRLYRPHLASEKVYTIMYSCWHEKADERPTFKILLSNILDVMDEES
Sequence of Cytochrome P450 2C19 (P33261 whole entry): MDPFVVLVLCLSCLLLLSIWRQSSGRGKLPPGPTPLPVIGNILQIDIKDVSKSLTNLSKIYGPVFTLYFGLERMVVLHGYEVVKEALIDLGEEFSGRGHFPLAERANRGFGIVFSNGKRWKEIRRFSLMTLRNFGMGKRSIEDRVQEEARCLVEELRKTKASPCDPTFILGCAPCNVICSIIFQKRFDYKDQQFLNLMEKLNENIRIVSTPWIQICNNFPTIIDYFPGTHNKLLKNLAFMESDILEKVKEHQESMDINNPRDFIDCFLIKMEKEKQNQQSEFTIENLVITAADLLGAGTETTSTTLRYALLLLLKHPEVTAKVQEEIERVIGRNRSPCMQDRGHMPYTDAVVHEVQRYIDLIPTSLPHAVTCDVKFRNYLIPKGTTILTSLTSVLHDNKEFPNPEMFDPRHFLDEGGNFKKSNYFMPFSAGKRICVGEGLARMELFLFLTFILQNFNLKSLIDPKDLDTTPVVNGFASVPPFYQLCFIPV
Sequence of Cytochrome P450 3A4 (P08684 whole entry): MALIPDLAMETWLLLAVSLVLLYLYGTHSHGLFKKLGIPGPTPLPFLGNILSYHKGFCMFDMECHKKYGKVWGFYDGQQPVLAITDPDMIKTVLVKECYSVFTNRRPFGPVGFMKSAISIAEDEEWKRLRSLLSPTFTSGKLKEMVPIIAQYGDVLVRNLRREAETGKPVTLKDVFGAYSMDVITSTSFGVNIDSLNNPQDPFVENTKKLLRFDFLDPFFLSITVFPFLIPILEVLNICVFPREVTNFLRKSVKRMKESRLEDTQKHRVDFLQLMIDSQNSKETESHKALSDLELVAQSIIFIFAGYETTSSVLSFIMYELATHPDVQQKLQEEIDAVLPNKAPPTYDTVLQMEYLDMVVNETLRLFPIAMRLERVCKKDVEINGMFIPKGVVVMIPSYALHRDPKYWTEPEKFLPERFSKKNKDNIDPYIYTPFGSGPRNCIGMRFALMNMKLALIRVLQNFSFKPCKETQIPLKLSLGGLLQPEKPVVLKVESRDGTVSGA
Sequence of Voltage-gated inwardly rectifying potassium channel KCNH2 (Q12809 whole entry): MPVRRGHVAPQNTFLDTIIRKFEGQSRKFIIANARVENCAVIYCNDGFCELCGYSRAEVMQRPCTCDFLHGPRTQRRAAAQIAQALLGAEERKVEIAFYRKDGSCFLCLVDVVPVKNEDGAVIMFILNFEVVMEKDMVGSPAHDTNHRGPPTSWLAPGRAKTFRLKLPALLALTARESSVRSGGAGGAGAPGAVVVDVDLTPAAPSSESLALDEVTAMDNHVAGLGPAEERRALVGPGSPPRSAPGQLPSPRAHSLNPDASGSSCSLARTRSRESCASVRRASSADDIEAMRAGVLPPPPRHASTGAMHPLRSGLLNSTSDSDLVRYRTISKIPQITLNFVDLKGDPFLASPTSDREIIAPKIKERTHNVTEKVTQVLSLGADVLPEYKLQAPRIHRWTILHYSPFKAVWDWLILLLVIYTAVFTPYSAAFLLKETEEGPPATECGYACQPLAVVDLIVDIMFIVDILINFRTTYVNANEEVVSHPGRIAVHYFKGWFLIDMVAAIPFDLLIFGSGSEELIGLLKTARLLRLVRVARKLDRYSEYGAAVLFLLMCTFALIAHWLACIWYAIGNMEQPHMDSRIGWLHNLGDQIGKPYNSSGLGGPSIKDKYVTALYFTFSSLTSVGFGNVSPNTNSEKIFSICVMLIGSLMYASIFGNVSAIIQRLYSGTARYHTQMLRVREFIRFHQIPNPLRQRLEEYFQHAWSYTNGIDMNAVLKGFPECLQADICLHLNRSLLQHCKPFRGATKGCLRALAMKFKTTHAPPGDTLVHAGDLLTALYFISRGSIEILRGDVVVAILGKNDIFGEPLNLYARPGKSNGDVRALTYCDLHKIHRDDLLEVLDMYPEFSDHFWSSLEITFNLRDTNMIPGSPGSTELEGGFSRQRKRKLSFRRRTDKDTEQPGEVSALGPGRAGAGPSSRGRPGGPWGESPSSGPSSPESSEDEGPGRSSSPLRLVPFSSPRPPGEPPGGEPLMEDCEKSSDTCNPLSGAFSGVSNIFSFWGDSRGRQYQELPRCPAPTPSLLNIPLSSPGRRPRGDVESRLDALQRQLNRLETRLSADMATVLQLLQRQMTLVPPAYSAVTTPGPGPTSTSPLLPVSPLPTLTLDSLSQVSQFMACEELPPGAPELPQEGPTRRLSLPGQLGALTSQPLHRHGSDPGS
Sequence of EGFR (P00533 whole entry): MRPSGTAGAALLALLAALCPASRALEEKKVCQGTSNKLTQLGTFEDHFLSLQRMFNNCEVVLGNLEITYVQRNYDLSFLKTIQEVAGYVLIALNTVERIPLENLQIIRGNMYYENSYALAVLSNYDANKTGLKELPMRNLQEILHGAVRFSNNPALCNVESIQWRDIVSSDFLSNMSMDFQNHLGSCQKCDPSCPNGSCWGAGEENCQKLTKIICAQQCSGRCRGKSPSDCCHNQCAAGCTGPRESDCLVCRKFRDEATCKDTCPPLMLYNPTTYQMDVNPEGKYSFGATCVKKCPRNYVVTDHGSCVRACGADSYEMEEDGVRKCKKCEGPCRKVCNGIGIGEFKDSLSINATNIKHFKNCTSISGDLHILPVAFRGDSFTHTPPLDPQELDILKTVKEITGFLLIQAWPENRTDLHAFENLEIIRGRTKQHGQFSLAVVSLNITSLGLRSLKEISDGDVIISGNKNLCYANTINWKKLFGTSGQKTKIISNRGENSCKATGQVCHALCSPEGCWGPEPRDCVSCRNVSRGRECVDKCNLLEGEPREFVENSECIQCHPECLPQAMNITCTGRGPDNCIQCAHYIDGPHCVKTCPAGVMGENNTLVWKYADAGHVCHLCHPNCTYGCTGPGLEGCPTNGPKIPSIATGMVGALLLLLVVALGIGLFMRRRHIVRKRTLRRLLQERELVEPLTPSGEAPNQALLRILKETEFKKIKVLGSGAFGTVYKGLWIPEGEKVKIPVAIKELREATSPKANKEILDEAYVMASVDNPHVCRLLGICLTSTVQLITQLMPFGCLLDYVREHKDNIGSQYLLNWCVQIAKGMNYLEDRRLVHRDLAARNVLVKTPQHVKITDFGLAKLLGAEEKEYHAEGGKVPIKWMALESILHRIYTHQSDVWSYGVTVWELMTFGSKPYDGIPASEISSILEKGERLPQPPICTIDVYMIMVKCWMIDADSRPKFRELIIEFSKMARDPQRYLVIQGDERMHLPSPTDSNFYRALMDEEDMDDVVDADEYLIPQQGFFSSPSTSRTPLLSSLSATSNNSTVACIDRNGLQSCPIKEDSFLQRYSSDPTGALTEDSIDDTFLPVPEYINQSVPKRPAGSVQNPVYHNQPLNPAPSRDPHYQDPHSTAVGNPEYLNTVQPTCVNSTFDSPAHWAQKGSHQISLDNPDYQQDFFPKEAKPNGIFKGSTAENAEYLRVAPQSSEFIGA
Sequence of Cytochrome P450 2C9 (P11712 whole entry): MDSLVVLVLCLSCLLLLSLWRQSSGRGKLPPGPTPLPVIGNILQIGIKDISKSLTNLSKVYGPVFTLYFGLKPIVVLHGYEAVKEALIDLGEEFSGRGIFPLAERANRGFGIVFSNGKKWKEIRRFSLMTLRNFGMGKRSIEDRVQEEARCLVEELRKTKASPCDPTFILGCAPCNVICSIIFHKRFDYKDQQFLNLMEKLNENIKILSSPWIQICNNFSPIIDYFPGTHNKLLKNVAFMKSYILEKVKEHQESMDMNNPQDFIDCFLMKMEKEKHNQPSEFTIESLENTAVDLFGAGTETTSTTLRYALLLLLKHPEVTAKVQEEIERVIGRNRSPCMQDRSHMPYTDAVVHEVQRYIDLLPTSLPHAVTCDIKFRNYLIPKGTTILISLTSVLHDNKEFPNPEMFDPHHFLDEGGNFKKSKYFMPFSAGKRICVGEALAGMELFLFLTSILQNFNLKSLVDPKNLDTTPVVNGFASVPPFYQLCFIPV

As for `C=CC(=O)N[C@H]1CCN(c2ccc(C(N)=O)c(Nc3ccc(C(=O)N4CCOCC4)cc3)n2)C1`, in data set [1], the negative logarithm of the IC50 (pIC50) (commonly the IC50 on a negative log10 scale, so that one unit is a factor of ten) was 8.80.
Take `C=CC(=O)N1C2CCC1CN(c1ccc(C(N)=O)c(Oc3ccc(Oc4ccccc4)cc3)n1)C2`: the microsomal CLint in data set [2] amounted to 106 µL/min/mg; in [4], 145 µL/min/mg; in data set [5], 315 µL/min/mg. For the same compound, in data set [3], the Papp A→B turned out to be 0.6 ×10⁻⁶ cm/s.
As for `C=CC(=O)N[C@@H]1CCCN(c2ccc(C(N)=O)c(Oc3ccc(Oc4ccccc4)cc3)n2)C1`, the microsomal CLint in data set [2] came out at 309 µL/min/mg; in data set [4], 1000 µL/min/mg; in data set [5], 488 µL/min/mg.
The matching figures for `C=CC(=O)NCC1CCCN(c2ccc(C(N)=O)c(Oc3ccc(Oc4ccccc4)cc3)n2)C1` (configuration not stated): 140 µL/min/mg, 302 µL/min/mg and 562 µL/min/mg.
`C=CC(=O)N1CCC[C@@H](n2nc(-c3ccc(Oc4ccccc4)cc3)c3c(N)ncnc32)C1` [IBRUTINIB]: in data set [6], the half-life (usually the time needed for the level to fall by half in the phase considered) was 30 min. Moreover, the negative-log IC50 (pIC50) is 4.96 in data set [7], 4.72 in [8], 4.95 in [9] and 5.07 in data set [12]. Further, in data set [3], the Papp A→B was determined as 7.2 ×10⁻⁶ cm/s. The fraction unbound – broadly, free concentration divided by total concentration – amounted to 0.017 in data set [10], 0.02 in [11] and 0.025 in data set [14]. Besides, the inhibition (usually how much of the control response was suppressed) at 1 µM in [13] was more than 50%. For the same compound, in [15], the bioavailability (as a rule, the share of a dose that reaches the circulation, judged against a reference dose that is usually intravenous) was found to be 12%.
For the compound `C=CC(=O)N1C[C@H]2C[C@@H]1CN2c1ccc(C(N)=O)c(Oc2ccc(Oc3ccccc3)cc2)n1`, the microsomal CLint in [2] turned out to be 33 µL/min/mg; in data set [4], 148 µL/min/mg; in data set [5], 472 µL/min/mg. The Papp A→B in data set [3] worked out at 8 ×10⁻⁶ cm/s.
In the same order, the values of `C=CC(=O)N1CC[C@@H](Nc2ccc(C(N)=O)c(Oc3ccc(Oc4ccccc4)cc3)n2)C1` are 156 µL/min/mg, 136 µL/min/mg, 191 µL/min/mg and 10 ×10⁻⁶ cm/s.
In the same order, the values of `C=CC(=O)N1CCN(c2ccc(C(N)=O)c(Oc3ccc(Oc4ccccc4)cc3)n2)CC1` are less than 10 µL/min/mg, 97 µL/min/mg, 18 µL/min/mg and 13 ×10⁻⁶ cm/s.
In the same order, the values of `C=CC(=O)N[C@H]1CCN(c2ccc(C(N)=O)c(Oc3ccc(Oc4ccccc4)cc3)n2)C1` are 10 µL/min/mg, 21 µL/min/mg, 27 µL/min/mg and 14 ×10⁻⁶ cm/s.
As to `C=CC(=O)N1C2CC1CN(c1ccc(C(N)=O)c(Oc3ccc(Oc4ccccc4)cc3)n1)C2`, the values for the microsomal CLint in data set [2], in data set [4] and in data set [5] were 49 µL/min/mg, 167 µL/min/mg and 647 µL/min/mg, respectively.
As to `C=CC(=O)N1CC[C@H](Nc2ccc(C(N)=O)c(Oc3ccc(Oc4ccccc4)cc3)n2)C1`, the microsomal CLint in data set [2] was determined as 125 µL/min/mg; in [4], 254 µL/min/mg; in data set [5], 228 µL/min/mg. Moreover, the Papp A→B in [3] stood at 3 ×10⁻⁶ cm/s.
As for `C=CC(=O)N1C[C@@H]2C[C@H]1CN2c1ccc(C(N)=O)c(Oc2ccc(Oc3ccccc3)cc2)n1`, the half-life in data set [6] is 43.2 min. Also, the CL/F (as a rule, the apparent clearance, not corrected for the fraction that reaches the circulation) in [16] is 20.7 mL/min/kg. Besides, the results for the inhibition in [17], in data set [21] and in [22] were 95%, 54% and 96%, respectively. The microsomal CLint was 74 µL/min/mg in data set [2], 203 µL/min/mg in [4] and 62 µL/min/mg in [5]. The Papp A→B in [3] lay in the range of 6.7 to 6.8 ×10⁻⁶ cm/s. In addition, the pIC50 in data set [18] is 7.00. In addition, the Vdss in [19] turned out to be 0.86 L/kg. In addition, the negative logarithm of the Ki (pKi) (commonly −log10 of the Ki, conventionally taken in molar units) in data set [20] was 5.66. The fraction unbound was 0.002 in data set [10], 0.0031 in [11] and 0.0046 in data set [14]. Besides, the bioavailability in data set [15] worked out at 47%.
The compound `C=CC(=O)N[C@H]1CCN(c2ccc(C(N)=O)c(Oc3ccc(C(=O)N4CCOCC4)cc3)n2)C1` gave a negative-log IC50 (pIC50) in [1] of 5.00.

The values are drawn from ChEMBL document CHEMBL4229542 (Bioorg Med Chem Lett, 2018).
